Values quoted from earlier work in US9474689B2, “Delamination resistant pharmaceutical glass containers containing active pharmaceutical ingredients” (Corning Incorporated, priority 2011, dated 2016).

Tests used:
[1] = test system: soluble and transmembrane forms of TNFα
TNFβ (lymphotoxin-α) = target: T1, TNFβ (lymphotoxin-α) (Homo sapiens, UniProt P01374)
T1 sequence (P01374 35-205): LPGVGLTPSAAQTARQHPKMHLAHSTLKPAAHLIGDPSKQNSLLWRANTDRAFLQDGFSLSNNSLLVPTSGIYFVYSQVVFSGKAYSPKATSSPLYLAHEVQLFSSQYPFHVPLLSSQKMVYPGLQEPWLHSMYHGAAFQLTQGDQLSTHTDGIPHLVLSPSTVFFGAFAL

Enterobacteriaceae = settings: in vitro
P. aeruginosa = settings: against P. aeruginosa

Sequence of soluble and transmembrane forms of TNFα (P01375 77-233 limits assumed): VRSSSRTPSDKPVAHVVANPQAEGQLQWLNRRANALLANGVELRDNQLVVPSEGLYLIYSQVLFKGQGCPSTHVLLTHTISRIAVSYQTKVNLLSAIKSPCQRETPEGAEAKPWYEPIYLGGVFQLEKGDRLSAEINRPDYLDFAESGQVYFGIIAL

Row | binding affinity to TNFα [1] | Compound | neutralization of TNFβ (TNFβ (lymphotoxin-α)) | activity against Enterobacteriaceae (Enterobacteriaceae) | protein binding | post-antibiotic effects in vitro (P. aeruginosa)
1 | high affinity | Infliximab: chimeric IgG1κ monoclonal antibody specific for human tumor necrosis factor-alpha | does not neutralize | – | – | –
2 | – | C[C@@H](O)[C@H]1C(=O)N2C(C(=O)O)=C(S[C@@H]3CN[C@H](CNS(N)(=O)=O)C3)[C@H](C)[C@H]12 [Doripenem, doripenem] | – | excellent activity | low protein binding | about two hours
